Consider one compound from patent publication US8859287B2, “Compositions and methods for treatment of cancer using tissue-specific oncolytic adenoviruses” (The Johns Hopkins University, priority 2009, dated 2014).

For experiment [1], the system named is p21/Waf-1 knockdown C4-2 cells. Description: Cell death of p21/Waf-1 knockdown C4-2 cells treated with drug. Format: cell-based.
The subject of another experiment is C4-2 cells. Description: MTS assay, growth inhibition and cytotoxicity, virus alone or with adriamycin. Format: cell-based. The following applies: adriamycin alone 0.1 μg/ml; by 72 hours. Here is the method:
3-(4,5)-Dimethylthiazol-2-yl)-5-(3-carboxy-methoxyphenyl)-2-(4-sulfophenyl)-2H-tetrazolium (MTS) assay: The metabolic viability of the cells was monitored using a MTS assay kit (CellTiter 96) from Promega (Madison, Wis.). Briefly cells are seeded onto 96-well plates and cultured in the presence of test agents for indicated time intervals. A mixture of MTS and phenazine methosulfate (an electron-coupling reagent; final concentrations 333 μg/ml and 25 μM, respectively) is added, and cells are incubated for 30 minutes at 37° C. Formazan formed from the reduction of MTS is quantified by measurement of absorbance of the medium at 490 nm using a microplate reader (All data have been normalized to the background signals).
Combinatory studies of Adriamycin with Ad5-RV004.21 or Ad5-RV004 virus in C4-2 cells: Combination treatment of viruses with radiation or chemotherapy hold promise as a new strategy for cancer treatment. However, there are reports of attenuated cytotoxicity of CRAds when combined with chemotherapies (e.g., doxorubicin). […] Cell cytotoxicity is measured by MTS assay after 72 hours of treatment and followed every 24 hours for a total of 7 days. […] The predicted value for the combinatory effect can be calculated and is given by the dotted gray line.
In general terms: Formazan colour is commonly taken as a measure of viable cells.

Structures are written as SMILES.

`COc1cccc2c1C(=O)c1c(O)c3c(c(O)c1C2=O)C[C@@](O)(C(=O)CO)C[C@@H]3O[C@H]1C[C@H](N)[C@H](O)[C@H](C)O1` [adriamycin]: the “cell death in p21/Waf-1 knockdown C4-2 cells compared to the wild type cell lines” value in experiment [1] was “increase in cell death”. Besides, the C4-2 cells killed with C4-2 cells is about 50%.
